Data published in BindingDB's records for doi:10.1021/acs.jnatprod.0c00251 (University of Halle-Wittenberg, 2020).
Numbered stars: 1 amine (or outer) side, 2 acyl side, 3 side chain; on linkers, the order of the positions; unused ones are H or OH. Bridge positions count the residues as written; N and C are the ends. Square brackets hold non-standard residues; d marks the D form. Peptide text beside a SMILES is read from it. * marks the point of attachment. Adda = CO[C@@H](Cc1ccccc1)[C@@H](C)/C=C(C)/C=C/[C@H](N[*:1])[C@H](C)C(=O)[*:2]; dAsp(3S-Me) = C[C@H](C(=O)[*:3])[C@@H](N[*:1])C(=O)[*:2]; d(γGlu) = O=C(O)[C@@H](CCC(=O)[*:2])N[*:1]; NMeDha = C=C(NC)C(=O)O; Propargyl = C#CC*

Experiments:
[1] = Substrate activity at OATP1B3 (unknown origin) expressed in HEK293 cells assessed as cytotoxicity incubated for 48 hrs by sulforhodamine B assay
[2] = Substrate activity at OATP1B1 (unknown origin) expressed in HEK293 cells assessed as cytotoxicity incubated for 48 hrs by sulforhodamine B assay

SMILES | EC50 [1] | EC50 [2]
C=C1C(=O)N[C@H](C)C(=O)N[C@@H](Cc2ccc(OCc3cn(-c4cc5ccc(O)cc5oc4=O)nn3)cc2)C(=O)N[C@@H](C(=O)O)[C@H](C)C(=O)N[C@@H](CCCNC(=N)N)C(=O)N[C@@H](/C=C/C(C)=C/[C@H](C)[C@H](Cc2ccccc2)OC)[C@H](C)C(=O)N[C@@H](C(=O)O)CCC(=O)N1C | 1.4 nM | 1.7 nM
C#CCOc1ccc(C[C@@H]2NC(=O)[C@@H](C)NC(=O)C(=C)N(C)C(=O)CC[C@H](C(=O)O)NC(=O)[C@@H](C)[C@H](/C=C/C(C)=C/[C@H](C)[C@H](Cc3ccccc3)OC)NC(=O)[C@H](CCCNC(=N)N)NC(=O)[C@@H](C)[C@H](C(=O)O)NC2=O)cc1 (R[Adda][d(γGlu)][NMeDha][dA]Y(Propargyl)[dAsp(3S-Me)]-OH; lactam N-7) | 2.4 nM | 1.1 nM
C=C1C(=O)N[C@H](C)C(=O)N[C@@H](Cc2ccc(O)cc2)C(=O)N[C@@H](C(=O)O)[C@H](C)C(=O)N[C@@H](CCCNC(=N)N)C(=O)N[C@@H](/C=C/C(C)=C/[C@H](C)[C@H](Cc2ccccc2)OC)[C@H](C)C(=O)N[C@@H](C(=O)O)CCC(=O)N1C (R[Adda][d(γGlu)][NMeDha][dA]Y[dAsp(3S-Me)]-OH; lactam N-7) | 3 nM | 4.5 nM
